The source of these data is paper PMC5059489, “Mechanistic evaluation and transcriptional signature of a glutathione S-transferase omega 1 inhibitor” (Nature Communications, 2016).

pIC50: −log10 of the molar value. Values joined by “and” are separate entries in the source; they are usually repeats but may differ in a detail not shown here. Equal entries are not always repeated.

Assay [1] deals with T1, GSTO1 (Homo sapiens, UniProt P78417).
T1 sequence (P78417 1-241): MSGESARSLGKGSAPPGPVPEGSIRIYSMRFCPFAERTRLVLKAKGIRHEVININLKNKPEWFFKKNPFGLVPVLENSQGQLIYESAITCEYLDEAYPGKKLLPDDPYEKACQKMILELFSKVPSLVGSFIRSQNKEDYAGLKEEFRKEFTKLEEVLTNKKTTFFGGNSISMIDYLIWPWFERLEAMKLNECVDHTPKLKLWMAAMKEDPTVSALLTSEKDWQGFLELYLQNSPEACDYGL
Briefly: GSTO1 substrate assay (reduction of 4-NPG).
Method: For activity screening, we adapted a GSTO1 substrate assay that relies on the quantification of the reduction of S-(4-nitrophenacyl)glutathione (4-NPG), a GSTO1-specific substrate[17], using recombinant human GSTO1 in a high-throughput screening format.
Enzyme activity was measured by monitoring the reduction of 4-NPG to 4-nitroacetophenone by GSTO1.

Assay [2] deals with T1, GSTO1. The experiment in a line: In-gel fluorescence competitive CMFDA binding assay, recombinant GSTO1. As to conditions: inhibition of CMFDA binding.
From the text: (§1) Primary screening of GSTO inhibitors was based on competitive inhibition of CMFDA binding to endogenous GSTO. Briefly, HCT116^p53+/+ cells (4 × 10^4 per well) were coated in a 12-well plate. […] Cells were then washed with PBS and lysed using Cell Lytic M buffer (Sigma). […] Gels were immediately scanned on a Typhoon variable mode imager (Amersham Bioscience). Quantification of fluorescent band intensity was done using Image Quant 5.2 software.
The target in another assay is T2, endogenous GSTO1 (Homo sapiens, UniProt P78417).
T2 sequence (P78417 1-241): T1 sequence (P78417 1-241)
The experiment in a line: In-gel fluorescence competitive CMFDA binding assay, endogenous GSTO1 in HCT116. As to conditions: 10 µM; inhibition of CMFDA binding, HCT116.

A further assay relates to HCT116p53+/+ cell. Briefly: MTT cell proliferation at single concentration. In kind it is cell-based, human. The procedure, abridged:
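MTT read-out (formazan in DMSO, 570 nm) after 3 h dye incubation at 37 °C, following 72 h inhibitor treatment of overnight-attached cells. Triplicate concentrations; ≥3 independent dose–response runs per line.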

From the text for endogenous GSTO1: as §1

Turning to `O=C(CCl)NCC(=O)Nc1ccc(F)c(F)c1` [C3-25], the “GSTO substrate assay % Inhibition at 10 µM” value on GSTO1 [1] was 82.4%. For the same compound, the “GSTO binding assay (% Inhibition at 10 µM) Recombinant” value at GSTO1 [2] is recorded as 36.2%. At endogenous GSTO1, the “GSTO binding assay (% Inhibition at 10 µM) Endogenous” value is recorded as 57.1%. Besides, in the assay with HCT116p53+/+ cell, the “% Inhibition of HCT116p53+/+ cell proliferation at 10 µM” value is 64.5% and 67.8%.
Consider `CCCCN(C(=O)CCl)c1c(N)n(CC(C)C)c(=O)[nH]c1=O` [C4-19], for which the “GSTO substrate assay % Inhibition at 10 µM” value at GSTO1 [1] turned out to be 11.8%. On GSTO1 [2], the “GSTO binding assay (% Inhibition at 10 µM) Recombinant” value is 2.1%. Also, at endogenous GSTO1, the “GSTO binding assay (% Inhibition at 10 µM) Endogenous” value is listed as -20.7%. For the same compound, the “% Inhibition of HCT116p53+/+ cell proliferation at 10 µM” value in the assay with HCT116p53+/+ cell is 67.3%.
Take `CCOC(=O)c1cc(C(C)C)sc1NC(=O)CCl` [C2-8]: at GSTO1 [1], the “GSTO substrate assay % Inhibition at 10 µM” value turned out to be 3.8%. Moreover, at GSTO1 [2], the “GSTO binding assay (% Inhibition at 10 µM) Recombinant” value stood at 39.2%. At endogenous GSTO1, the “GSTO binding assay (% Inhibition at 10 µM) Endogenous” value is 51.7%. Also, the “% Inhibition of HCT116p53+/+ cell proliferation at 10 µM” value with HCT116p53+/+ cell is 4.5% and 0.8%.
Consider `COc1ccc(-c2csc(NC(=O)CCl)n2)c(O)c1` [C2-24], for which, at GSTO1 [1], the “GSTO substrate assay % Inhibition at 10 µM” value worked out at 34.0%. Moreover, the “GSTO binding assay (% Inhibition at 10 µM) Recombinant” value on GSTO1 [2] was found to be 82.4%. The “GSTO binding assay (% Inhibition at 10 µM) Endogenous” value at endogenous GSTO1 is 62.1%. Further, the “% Inhibition of HCT116p53+/+ cell proliferation at 10 µM” value in the assay on HCT116p53+/+ cell is 22.9% and 19.2%.
`CCOC(=O)c1c(NC(=O)CCl)sc2c1CCN(CC)C2` [C2-17]: the “GSTO substrate assay % Inhibition at 10 µM” value at GSTO1 [1] was determined as 77.2%. The “GSTO binding assay (% Inhibition at 10 µM) Recombinant” value on GSTO1 [2] amounted to 51.5%. In addition, the “GSTO binding assay (% Inhibition at 10 µM) Endogenous” value at endogenous GSTO1 was 24.8%. Moreover, in the assay with HCT116p53+/+ cell, the “% Inhibition of HCT116p53+/+ cell proliferation at 10 µM” value is 85.2% and 94.5%.
The term pIC50 denotes the IC50 on a negative log10 scale, so that one unit is a factor of ten. Consider `N#CC(c1ccccc1)N1CCN(C(=O)CCl)CC1` (stereo not shown) [C5-8], for which the “GSTO substrate assay % Inhibition at 10 µM” value at GSTO1 [1] was 93.8%. For the same compound, on GSTO1 [1] (read-out: GSTO substrate assay IC50, cluster screening tables), the pIC50 is 6.53. Further, the “GSTO binding assay (% Inhibition at 10 µM) Recombinant” value on GSTO1 [2] was 62.3%. The “GSTO binding assay (% Inhibition at 10 µM) Endogenous” value on endogenous GSTO1 is 75.7%. For the same compound, the “% Inhibition of HCT116p53+/+ cell proliferation at 10 µM” value with HCT116p53+/+ cell is 82.6% and 87.3%.
For `Cc1cc(S(=O)(=O)N(C)C)cc(NC(=O)CCl)c1C` [C1-26], on GSTO1 [1], the “GSTO substrate assay % Inhibition at 10 µM” value was 31.1%. Besides, the “GSTO binding assay (% Inhibition at 10 µM) Recombinant” value on GSTO1 [2] is given as 51.4%. Further, at endogenous GSTO1, the “GSTO binding assay (% Inhibition at 10 µM) Endogenous” value was determined as 48.9%. For the same compound, the “% Inhibition of HCT116p53+/+ cell proliferation at 10 µM” value in the assay on HCT116p53+/+ cell came out at 13.2%.
In the case of `O=C(CCl)Nc1cc([N+](=O)[O-])ccc1Nc1ccc(F)cc1` [C1-4], at GSTO1 [1], the “GSTO substrate assay % Inhibition at 10 µM” value was determined as 92.5%. On GSTO1 [2], the “GSTO binding assay (% Inhibition at 10 µM) Recombinant” value worked out at 81.5%. Further, on endogenous GSTO1, the “GSTO binding assay (% Inhibition at 10 µM) Endogenous” value is 31.8%. In the assay with HCT116p53+/+ cell, the “% Inhibition of HCT116p53+/+ cell proliferation at 10 µM” value is 80.6%.
Take `Cc1sc2ncn(NC(=O)CCl)c(=O)c2c1C` [C2-30]: the “GSTO substrate assay % Inhibition at 10 µM” value on GSTO1 [1] is listed as 47.4%. For the same compound, the “GSTO binding assay (% Inhibition at 10 µM) Recombinant” value on GSTO1 [2] worked out at 50.5%. The “GSTO binding assay (% Inhibition at 10 µM) Endogenous” value at endogenous GSTO1 turned out to be 41.1%. Moreover, the “% Inhibition of HCT116p53+/+ cell proliferation at 10 µM” value with HCT116p53+/+ cell amounted to 12.0%.
